How the values were obtained:
human U2OS cells = assay: CCK-8 assay and live-dead staining; format: cell-based; conditions: 1-100 μmol/L, 24, 48, 72 h, pronounced above 10 μmol/L
Protocol: U2OS cells were seeded at a density of 10 000 cells per well in a 96-well plate, with 100 μL of culture medium added to each well. The cells were incubated at 37 °C in a 5% CO2 atmosphere for 24 h or until they reached the logarithmic growth phase. Following this, the cells were treated with SR1078, Gala-SR, Malt-SR, and Mann-SR and incubated for 24, 48, and 72 h. 10 μL of CCK-8 reagent was added to each well, and the plate was returned to the incubator for an additional 1–4 h. Absorbance at 450 nm was then measured using a microplate reader. The average absorbance for each well was calculated, and relative cell viability was determined by comparing the absorbance values to those of the control group.
332 Figure S25. After U2OS cells were treated with various concentrations (0 ~ 50 μM) of SR1078,
333 Gala-SR, Malt-SR, and Mann-SR for 24 hours, live and dead cells were labeled using the
334 Calcein-AM/PI double-staining method. Scale bar: 50 μm.
Body weight changes (%) in
338 C57BL/6J mice (n = 4) after 7 days of administration of Gala-SR, SR1078, or DMSO at doses of 10
339 mg/kg and 50 mg/kg via IP were measured. […]

RORα/γ = assay: PCR of RORα/γ downstream target genes G6Pase and FGF21 in HepG2 cells; format: cell-based
Protocol: Cells were seeded into 6-well plates, treated with the drug for 24 h, and total RNA samples were extracted using TRIzol reagent (Vazyme, China). The extraction of total RNA was performed according to the following steps: After removal of the supernatant, the cells were thoroughly washed three times with phosphate-buffered saline (PBS). Subsequently, the cells were lysed by the application of 1 mL TRIzol reagent. The resulting samples were harvested into frozen 2 mL Eppendorf microcentrifuge tubes and incubated at room temperature for 5 min. A volume of 0.2 mL of chloroform was added to the microcentrifuge tubes to ensure homogenization of the samples, which were then vortexed and incubated at room temperature for another 10 min. The samples were then centrifuged at a speed of 12 000 × g in a microcentrifuge at 4 °C for 15 min. The upper aqueous phase was subsequently collected and transferred to a new 2 mL microcentrifuge tube and mixed with an equal volume of isopropanol. The mixture was then centrifuged at a speed of 12 000 × g in a table microcentrifuge at 4 °C for 10 min. The resulting precipitates were washed once with 1 mL of 75% ethanol and once with 100% ethanol, followed by centrifugation at a speed of 7 500 × g in a table microcentrifuge for 5 min. Finally, the pellet was dissolved in RNase-free DEPC-treated water.
RNA from liver, periodontal tissues and cell samples was prepared as previously described. Total RNA (1 ug) was synthesized into cDNA using […] (Vazyme). mRNA expression levels were normalized to GAPDH. Relative expression levels and enrichment contents were calculated using the comparative Ct Method. Primer information is detailed in Data file S1.

β-galactosidase = assay: Hydrolysis of Gala-SR by β-galactosidase (MS); format: in vitro ADME; conditions: mass spectrometry
[1] = Toxicity and safety evaluation in vivo (blood biochemistry, histopathology); conditions: mice, 10 mg/Kg
Protocol: 379 Figure S34. Exploration of the inhibitory effect of compound 9 on the targeting function of RORs. a.
380 Synthetic route of compound 9. b. Cytotoxicity assessment of compound 9 by CCK-8 assay. c.qPCR
381 analysis of downstream target genes (FGF21 and G6Pase) in compound 9-treated HepG2 cells(n=6).
382 d. Cotransfection of HEK293T cells with RORα or RORγ and reporters containing the FGF21 or
384 5μM each of Gala-SR and SR1078. (* represents the comparison with DMSO*P<0.05, n=4).
386 Figure S35. Impact of Gala-SR on circadian clock gene expression in periodontal ligament stem cells.
387 qPCR analysis of core clock genes at multiple time points in synchronized hPDLSCs treated with 5
391 Figure S36.Toxicity and safety evaluation in vivo.a. After intraperitoneal injection of Gala-SR and
392 SR1078 for 2 weeks, mouse serum was collected to measure […] (ALT, AST, CREA,
393 and BUN. ns, not significant) to assess the drugs' impact on liver function. b. HE staining was
394 performed on liver, kidney, and heart tissues from mice after 2 weeks of intraperitoneal injection with […]

## O=C(Nc1ccc(C(OCO[C@@H]2O[C@H](CO)[C@H](O)[C@H](O)[C@H]2O)(C(F)(F)F)C(F)(F)F)cc1)c1ccc(C(F)(F)F)cc1 [Gala-SR]
Human U2OS cells
  cytotoxicity / cell compatibility: superior among all the evaluated groups
RORα/γ; HepG2, 5 μmol/L Gala-SR + β-galactosidase inhibitor, vs pure Gala-SR
  G6Pase and FGF21 expression, with galactosidase inhibitor: downregulated
RORα/γ; HepG2, 5 μmol/L Gala-SR + β-galactosidase, vs pure Gala-SR
  G6Pase and FGF21 expression, with galactosidase: significantly upregulated
RORα/γ; HepG2 cells, 5 μmol/L, 24 h, compared to SR1078
  G6Pase and FGF21 mRNA expression: significant upregulation
β-galactosidase
  hydrolysis upon addition of galactosidase (release of SR1078): hydrolysis of galactose on, Gala-SR occurred
[1]
  histopathological examination of liver, kidney, and heart: no discernible changes
